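Where inhibition never reached the appropriate level, the endpoint shown equals the highest concentration tested. Otherwise, values were interpolated linearly from a five-concentration, 48-hour dose response in 96-well plates. TGI denotes the concentration required for complete inhibition of growth.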
Experiments:
Assay in all cases: NCI-60 cell line screen, 48 h
PC-3 prostate = test system: PC-3 prostate
MALME-3M melanoma = test system: MALME-3M melanoma
COLO 205 colon = test system: COLO 205 colon
HS 578T breast = test system: HS 578T breast
NCI-H460 lung = test system: NCI-H460 lung
SW-620 colon = test system: SW-620 colon
SF-539 CNS = test system: SF-539 CNS
OVCAR-3 ovarian = test system: OVCAR-3 ovarian
SR leukemia = test system: SR leukemia
SNB-19 CNS = test system: SNB-19 CNS
UACC-257 melanoma = test system: UACC-257 melanoma
LOX IMVI melanoma = test system: LOX IMVI melanoma
DU-145 prostate = test system: DU-145 prostate
A549 NSCLC = test system: A549 NSCLC
SNB-75 CNS = test system: SNB-75 CNS
ACHN renal = test system: ACHN renal
SK-OV-3 ovarian = test system: SK-OV-3 ovarian
T-47D breast = test system: T-47D breast
NCI/ADR-RES ovarian = test system: NCI/ADR-RES ovarian
HCC-2998 colon = test system: HCC-2998 colon
HCT-116 colon = test system: HCT-116 colon
HCT-15 colon = test system: HCT-15 colon
A498 renal = test system: A498 renal
HL-60(TB) leukemia = test system: HL-60(TB) leukemia
OVCAR-5 ovarian = test system: OVCAR-5 ovarian
K-562 leukemia = test system: K-562 leukemia
KM12 colon = test system: KM12 colon
UACC-62 melanoma = test system: UACC-62 melanoma
OVCAR-8 ovarian = test system: OVCAR-8 ovarian
HOP-92 NSCLC = test system: HOP-92 NSCLC
EKVX NSCLC = test system: EKVX NSCLC
RPMI-8226 leukemia = test system: RPMI-8226 leukemia
MOLT-4 leukemia = test system: MOLT-4 leukemia
NCI-H23 lung = test system: NCI-H23 lung
NCI-H226 lung = test system: NCI-H226 lung
SN12C renal = test system: SN12C renal
SK-MEL-2 melanoma = test system: SK-MEL-2 melanoma
786-0 renal = test system: 786-0 renal
HT29 colon = test system: HT29 colon
NCI-H522 lung = test system: NCI-H522 lung
TK-10 renal = test system: TK-10 renal
OVCAR-4 ovarian = test system: OVCAR-4 ovarian
HOP-62 NSCLC = test system: HOP-62 NSCLC
CCRF-CEM leukemia = test system: CCRF-CEM leukemia
SF-295 CNS = test system: SF-295 CNS
UO-31 renal = test system: UO-31 renal
MCF7 breast = test system: MCF7 breast
RXF 393 renal = test system: RXF 393 renal
SK-MEL-28 melanoma = test system: SK-MEL-28 melanoma
U251 CNS = test system: U251 CNS
MDA-MB-435 = test system: MDA-MB-435
SK-MEL-5 melanoma = test system: SK-MEL-5 melanoma
MDA-MB-231 breast = test system: MDA-MB-231 breast
MDA-N = test system: MDA-N
M14 melanoma = test system: M14 melanoma
SF-268 CNS = test system: SF-268 CNS
IGROV1 ovarian = test system: IGROV1 ovarian
CAKI-1 renal = test system: CAKI-1 renal

Measured: TGI

O=C(NCCOC(=O)OCCNC(=O)NC1CCCCC1)NC1CCCCC1
79 µM: HOP-92 NSCLC
> 100 µM: PC-3 prostate | MALME-3M melanoma | COLO 205 colon | HS 578T breast | NCI-H460 lung | SW-620 colon | SF-539 CNS | OVCAR-3 ovarian | SR leukemia | SNB-19 CNS | UACC-257 melanoma | LOX IMVI melanoma | DU-145 prostate | A549 NSCLC | SNB-75 CNS | ACHN renal | SK-OV-3 ovarian | T-47D breast | NCI/ADR-RES ovarian | HCC-2998 colon | HCT-116 colon | HCT-15 colon | A498 renal | HL-60(TB) leukemia | OVCAR-5 ovarian | K-562 leukemia | KM12 colon | UACC-62 melanoma | OVCAR-8 ovarian | EKVX NSCLC | RPMI-8226 leukemia | MOLT-4 leukemia | NCI-H23 lung | NCI-H226 lung | SN12C renal | SK-MEL-2 melanoma | 786-0 renal | HT29 colon | NCI-H522 lung | TK-10 renal | OVCAR-4 ovarian | HOP-62 NSCLC | CCRF-CEM leukemia | SF-295 CNS | UO-31 renal | MCF7 breast | RXF 393 renal | SK-MEL-28 melanoma | U251 CNS | MDA-MB-435 | SK-MEL-5 melanoma | MDA-MB-231 breast | MDA-N | M14 melanoma | SF-268 CNS | IGROV1 ovarian | CAKI-1 renal

CC(=O)OC1CC2CC(=O)CC1N2C (stereo unspecified)
> 100 µM: PC-3 prostate | MALME-3M melanoma | COLO 205 colon | HS 578T breast | NCI-H460 lung | SW-620 colon | SF-539 CNS | OVCAR-3 ovarian | SR leukemia | SNB-19 CNS | UACC-257 melanoma | LOX IMVI melanoma | DU-145 prostate | A549 NSCLC | SNB-75 CNS | ACHN renal | SK-OV-3 ovarian | T-47D breast | NCI/ADR-RES ovarian | HCC-2998 colon | HCT-116 colon | HCT-15 colon | A498 renal | HL-60(TB) leukemia | OVCAR-5 ovarian | K-562 leukemia | KM12 colon | UACC-62 melanoma | OVCAR-8 ovarian | HOP-92 NSCLC | EKVX NSCLC | RPMI-8226 leukemia | MOLT-4 leukemia | NCI-H23 lung | NCI-H226 lung | SN12C renal | SK-MEL-2 melanoma | 786-0 renal | HT29 colon | NCI-H522 lung | TK-10 renal | OVCAR-4 ovarian | HOP-62 NSCLC | CCRF-CEM leukemia | SF-295 CNS | UO-31 renal | MCF7 breast | RXF 393 renal | SK-MEL-28 melanoma | U251 CNS | MDA-MB-435 | SK-MEL-5 melanoma | MDA-MB-231 breast | MDA-N | M14 melanoma | SF-268 CNS | IGROV1 ovarian | CAKI-1 renal
